Results reported in ChEMBL document CHEMBL5365505, “Targeted Degradation of CDK4/6: An Innovative Approach to Overcoming Cancer Drug Resistance” (ACS Med Chem Lett, 2023).
“And” between values parts separate entries of the source, which are not always exact repeats. Equal values may be shown once.

Tests used:
Type in all cases: ADME, organism-based
Details in all cases: in vivo
[1] = Cmax in C57BL/6 mouse at 25 mg/kg, ip measured for 24 hrs by LC/MS/MS analysis; design: dose 25 mg/kg, time 24 hrs, route ip
[2] = Tmax in C57BL/6 mouse at 25 mg/kg, ip measured for 24 hrs by LC/MS/MS analysis
[3] = Half life in C57BL/6 mouse at 25 mg/kg, ip measured for 24 hrs by LC/MS/MS analysis
[4] = AUClast in C57BL/6 mouse at 25 mg/kg, ip measured for 24 hrs by LC/MS/MS analysis; design: dose 25 mg/kg, time 24 hrs, route ip
[5] = AUC (infinity) in C57BL/6 mouse at 25 mg/kg, ip measured for 24 hrs by LC/MS/MS analysis; design: time 24 hrs, dose 25 mg/kg, route ip
[6] = Cmax in C57BL/6 mouse at 10 mg/kg, po measured for 24 hrs by LC/MS/MS analysis; design: time 24 hrs, dose 10 mg/kg, route po
[7] = Tmax in C57BL/6 mouse at 10 mg/kg, po measured for 24 hrs by LC/MS/MS analysis
[8] = Half life in C57BL/6 mouse at 10 mg/kg, po measured for 24 hrs by LC/MS/MS analysis
[9] = AUClast in C57BL/6 mouse at 10 mg/kg, po measured for 24 hrs by LC/MS/MS analysis; design: dose 10 mg/kg, time 24 hrs, route po
[10] = AUC (infinity) in C57BL/6 mouse at 10 mg/kg, po measured for 24 hrs by LC/MS/MS analysis; design: dose 10 mg/kg, time 24 hrs, route po

## CC(=O)c1c(C)c2cnc(Nc3ccc(N4CCN(CCCCC(=O)N[C@H](C(=O)N5C[C@H](O)C[C@H]5C(=O)N[C@@H](C)c5ccc(-c6scnc6C)cc5)C(C)(C)C)CC4)cn3)nc2n(C2CCCC2)c1=O
[1]
  Cmax: 2550 ng/mL and 2.6 µM
[2]
  Tmax: 0.58 h
[3]
  half-life: 7 h
[4]
  AUC(0-t) at 24 h: 8210 ng·h/mL
[5]
  AUC(0-inf): 9230 ng·h/mL

## CC(=O)c1c(C)c2cnc(Nc3ccc(N4CCN(CC5CCN(c6ccc7c(c6)C(=O)N(C6CCC(=O)NC6=O)C7=O)CC5)CC4)cn3)nc2n(C2CCCC2)c1=O (stereo not given)
[6]
  Cmax: 724 ng/mL
[7]
  Tmax: 1 h
[8]
  half-life: 2.15 h
[9]
  AUC(0-t) at 24 h: 2470 ng·h/mL
[10]
  AUC(0-inf): 2730 ng·h/mL
